Target: T1, human vasopressin V1a receptor subtype (Homo sapiens, UniProt P37288)
T1 construct: host or cells: CHO cells (pZeoSV vector for the Thibonnier line)
Assay: Vasopressin binding in Chinese Hamster Ovary cell membranes expressing human vasopressin V1a subtype receptors
Settings: 100 nM, CHO cell membranes, [3H]Manning ligand, values without parentheses
How it was run: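 Membranes from CHO cells expressing human V1a receptor were incubated with [3H]Manning ligand (added as 20 μL of 8 nM) in pH 7.4 Tris buffer with MgCl2, BSA and protease inhibitors, 60 min at room temperature. Bound radioactivity was counted after filtration; values are percent inhibition at a stated concentration or IC50.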

T1 sequence (P37288 whole entry): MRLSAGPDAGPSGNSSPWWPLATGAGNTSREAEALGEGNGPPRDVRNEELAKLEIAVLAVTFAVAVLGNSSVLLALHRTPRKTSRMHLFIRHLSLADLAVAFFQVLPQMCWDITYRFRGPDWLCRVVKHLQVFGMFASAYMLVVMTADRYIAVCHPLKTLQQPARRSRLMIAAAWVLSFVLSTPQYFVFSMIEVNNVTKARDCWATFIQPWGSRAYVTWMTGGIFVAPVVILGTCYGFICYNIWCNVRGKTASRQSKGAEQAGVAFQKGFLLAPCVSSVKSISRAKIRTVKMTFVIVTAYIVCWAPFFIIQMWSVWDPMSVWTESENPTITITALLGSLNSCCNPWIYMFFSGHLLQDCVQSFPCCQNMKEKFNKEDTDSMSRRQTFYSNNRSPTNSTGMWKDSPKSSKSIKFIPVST

inhibition at 0.1 µM [%]	V1a % inhibition @ 100 nM (0.1 µM) [%]	SMILES
-3		COc1cc(-c2ccccc2C)c(Cl)cc1C(=O)N1Cc2ccc(C(=O)NCCCN(C)C)n2Cc2ccccc21 [Example 78, 10-[(6-Chloro-3-methoxy-2′-methyl[1,1′-biphenyl]-4-yl)carbonyl]-N-[3-(dimethylamino)propyl]-10,11-dihydro-5H-pyrrolo[2,1-c][1,4]benzodiazepine-3-carboxamide]
9		COc1cc(C(=O)N2Cc3ccc(C(=O)N4CCCN(C)CC4)n3Cc3ccccc32)ccc1-c1cccc2ccccc12 [Example 68, {10-[3-Methoxy-4-(1-naphthyl)benzoyl]-10,11-dihydro-5H-pyrrolo[2,1-c][1,4]benzodiazepin-3-yl}(4-methyl-1,4-diazepan-1-yl)methanone]
53		COc1cc(C(=O)N2Cc3ccc(C(=O)N4CCN(CCCN(C)C)CC4)n3Cc3ccccc32)ccc1-c1ccccc1C [Example 250, {4-[3-(Dimethylamino)propyl]-1-piperazinyl}{10-[(2-methoxy-2′-methyl[1,1′-biphenyl]-4-yl)carbonyl]-10,11-dihydro-5H-pyrrolo[2,1-c][1,4]benzodiazepin-3-yl}methanone]
0		Cc1cc(C(=O)N2Cc3ccc(C(=O)N[C@@H](Cc4c[nH]cn4)C(N)=O)n3Cc3ccccc32)ccc1-c1ccccc1C(F)(F)F [Example 284, N-[(1S)-2-Amino-1-(1H-imidazol-4-ylmethyl)-2-oxoethyl]-10-{[2-methyl-2′-(trifluoromethyl)[1,1′-biphenyl]-4-yl]carbonyl}-10,11-dihydro-5H-pyrrolo[2,1-c][1,4]benzodiazepine-3-carboxamide]
4		COc1cc(C(=O)N2Cc3ccc(C(=O)N4CCN(C)CC4)n3Cc3ccccc32)ccc1-c1cccc2ccccc12 [Example 55, {10-[3-Methoxy-4-(1-naphthyl)benzoyl]-10,11-dihydro-5H-pyrrolo[2,1-c][1,4]benzodiazepin-3-yl}(4-methyl-1-piperazinyl)methanone]
10		COc1cc(C(=O)N2Cc3ccc(C(=O)N4CCN(CCN5CCOCC5)CC4)n3Cc3ccccc32)ccc1-n1c(C)ccc1C [Example 317, {10-[4-(2,5-Dimethyl-1H-pyrrol-1-yl)-3-methoxybenzoyl]-10,11-dihydro-5H-pyrrolo[2,1-c][1,4]benzodiazepin-3-yl}{4-[2-(4-morpholinyl)ethyl]-1-piperazinyl}methanone]
	10	Cc1cc(C(=O)N2Cc3ccc(C(=O)N4CCN(CCCN(C)C)CC4)n3Cc3ccccc32)ccc1-c1ccccc1C(F)(F)F [Example 257, {10-[(2-Methyl-2′-trifluoromethyl-[1,1′-biphenyl]-4-yl)carbonyl]-10,11-dihydro-5H-pyrrolo[2,1-c][1,4]benzodiazepin-3-yl}{4-[3-(dimethylamino)propyl]-1-piperazinyl}-methanone]
-4		COc1cccc(-c2cc(OC)c(C(=O)N3Cc4ccc(C(=O)N5CCN(C)CC5)n4Cc4ccccc43)cc2Cl)c1 [Example 54, {10-[(6-Chloro-3,3′-dimethoxy[1,1′-biphenyl]-4-yl)carbonyl]-10,11-dihydro-5H-pyrrolo[2,1-c][1,4]benzodiazepin-3-yl}(4-methyl-1-piperazinyl)methanone]
-7		COc1cc(-c2ccccc2C)c(Cl)cc1C(=O)N1Cc2ccc(C(=O)N[C@@H](CCCCNC(=O)OC(C)(C)C)C(N)=O)n2Cc2ccccc21 [Example 304, tert-Butyl (5S)-6-amino-5-[({10-[(6-chloro-3-methoxy-2′-methyl[1,1′-biphenyl]-4-yl)carbonyl]-10,11-dihydro-5H-pyrrolo[2,1-c][1,4]benzodiazepin-3-yl}carbonyl)amino]-6-oxohexylcarbamate]

SMILES	inhibition at 0.1 µM [%]	V1a % inhibition @ 100 nM (0.1 µM) [%]
COc1ccccc1-c1ccc(C(=O)N2Cc3ccc(C(=O)N[C@H]4CN5CCC4CC5)n3Cc3ccccc32)cc1 [Example 296, N-[(3R)-1-Azabicyclo[2.2.2]oct-3-yl]-10-[(2′-methoxy[1,1′-biphenyl]-4-yl)carbonyl]-10,11-dihydro-5H-pyrrolo[2,1-c][1,4]benzodiazepine-3-carboxamide]	31	

From patent publication US7109193B2, “Tricyclic diazepines tocolytic oxytocin receptor antagonists” (Wyeth, priority 2001, dated 2006)
